{"source": "patent US4123530A", "about": "“N-cyclohexyl-piperazino acetamides and propionamides” (Camillo Corvi S.p.A., priority 1976, dated 1978)", "key": {"Wistar rats": {"tested_on": "Wistar rats", "assay": "Sub-chronic toxicity (30 days per ora)", "type": "in vivo", "conditions": "oral 400 mg/kg", "method": "(2) Sub-chronic toxicity (C/63)\nEighty Wistar rats were divided in 4 groups of twenty each (10 males and 10 fewales). Compound (C/63) was given per ora to three groups of animals for a period of 30 days in quantities of 100, 200 and 400 mg/kg."}, "Withdrawal ulcer": {"tested_on": "Withdrawal ulcer", "assay": "Anti-ulcer activity: Withdrawal ulcer", "type": "in vivo", "conditions": "100 mg/kg os"}, "acute toxicity, rats": {"assay": "acute toxicity, rats", "conditions": "rat, in vivo, po, os, read-out: DL/50 (the source's name)"}, "Guinea-pig Ileus": {"tested_on": "Guinea-pig Ileus", "assay": "spasmolytic activity in vitro, Guinea-pig Ileus"}, "Shay ulcer": {"tested_on": "Shay ulcer", "assay": "Anti-ulcer activity: Shay ulcer", "type": "in vivo", "conditions": "300 mg/kg os"}, "intestine peristaltis": {"tested_on": "intestine peristaltis", "assay": "spasmolytic activity in vivo: activity on intestine peristaltis (mouse)", "excerpt": "Activity of C/63 on intestine peristaltis (mouse)"}, "[1]": {"tested_on": "Ulcer due to activity prevention", "assay": "Anti-ulcer activity: Ulcer due to activity prevention (Rossi & Coll.)", "type": "in vivo"}, "acute toxicity, mice": {"assay": "acute toxicity, mice", "conditions": "mouse, in vivo, read-out: DL/50 (the source's name)"}, "[2]": {"tested_on": "Phenylbutazone-histamine ulcer", "assay": "Anti-ulcer activity: Phenylbutazone-histamine ulcer", "type": "in vivo"}, "Reserpine ulcer": {"tested_on": "Reserpine ulcer", "assay": "Anti-ulcer activity: Reserpine ulcer with rats", "type": "in vivo"}}}
{"smiles": "O=C(CN1CCNCC1)NC1CCCCC1", "note": "[C/63, N-[1-piperazinylacetyl]-cyclohexylamine]", "values": [{"measurement": "appearance of damages due to toxicity (bloodcrasis, biochemical blood analysis, weight, histological examination of the organs)", "setting": "Wistar rats", "result": "no appearance of damages due to the toxicity of the drug"}, {"measurement": "Inhibition %", "setting": "Withdrawal ulcer", "result": 33, "unit": "%"}, {"measurement": "LD50", "setting": "acute toxicity, rats", "result": 3900, "unit": "mg/kg"}, {"measurement": "DE50 against Ach.", "setting": "Guinea-pig Ileus; against Ach.", "result": "> 40", "unit": "µg/mL"}, {"measurement": "DE50 against BaCl2", "setting": "Guinea-pig Ileus; against BaCl2", "result": "> 40", "unit": "µg/mL"}, {"measurement": "DE50 against histamine", "setting": "Guinea-pig Ileus; against histamine", "result": "> 40", "unit": "µg/mL"}, {"measurement": "Inhibition %", "setting": "Shay ulcer", "result": 72, "unit": "%"}, {"measurement": "Inhibition %", "setting": "intestine peristaltis; 100 mg/kg os", "result": 6, "unit": "%"}, {"measurement": "Inhibition %", "setting": "intestine peristaltis; 200 mg/kg os", "result": 23, "unit": "%"}, {"measurement": "Inhibition %", "setting": "[1]; 50 mg/kg os", "result": 19, "unit": "%"}, {"measurement": "Inhibition %", "setting": "[1]; 100 mg/kg os", "result": 32, "unit": "%"}, {"measurement": "Inhibition %", "setting": "[1]; 200 mg/kg os", "result": 45, "unit": "%"}, {"measurement": "LD50", "setting": "acute toxicity, mice; iv", "result": 271, "unit": "mg/kg"}, {"measurement": "LD50", "setting": "acute toxicity, mice; po, os", "result": 1970, "unit": "mg/kg"}, {"measurement": "Inhibition %", "setting": "[2]; 25 mg/kg os", "result": 10, "unit": "%"}, {"measurement": "Inhibition %", "setting": "[2]; 50 mg/kg os", "result": 43, "unit": "%"}, {"measurement": "Inhibition %", "setting": "[2]; 100 mg/kg os", "result": 72, "unit": "%"}, {"measurement": "Inhibition %", "setting": "Reserpine ulcer; 300 mg/kg os", "result": 25, "unit": "%"}]}
{"smiles": "CC1CCC(NC(=O)CN2CCNCC2)CC1", "note": "(stereo not drawn) [C/82, N-(1-piperazinylacetyl)-4-methyl-cyclohexylamine]", "values": [{"measurement": "anticholinergic activity", "setting": "anticholinergic activity", "result": "no anticholinergic activity"}, {"measurement": "Inhibition %", "setting": "Withdrawal ulcer", "result": 30, "unit": "%"}, {"measurement": "Inhibition %", "setting": "[1]; 100 mg/kg os", "result": 30, "unit": "%"}, {"measurement": "Inhibition %", "setting": "[1]; 200 mg/kg os", "result": 35, "unit": "%"}, {"measurement": "LD50", "setting": "acute toxicity, mice; po, os", "result": 1790, "unit": "mg/kg"}, {"measurement": "Inhibition %", "setting": "[2]; 50 mg/kg os", "result": 33, "unit": "%"}, {"measurement": "Inhibition %", "setting": "[2]; 100 mg/kg os", "result": 60, "unit": "%"}, {"measurement": "Inhibition %", "setting": "Reserpine ulcer; 100 mg/kg os", "result": 47, "unit": "%"}, {"measurement": "Inhibition %", "setting": "Reserpine ulcer; 300 mg/kg os", "result": 70, "unit": "%"}]}
